Data as given in ChEMBL document CHEMBL1201862, “PubChem BioAssay data set” (2004).
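Exposure lasted 48 hours, with cells grown in 96-well plates and compounds tested at five concentrations. GI50: concentration for 50% inhibition of growth.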 Active and inactive are the calls of the source. Rule as the data show it: active = GI50 up to about 1.1 µM and inactive = higher.

Assays:
Test in all cases: NCI tumour cell line growth inhibition, 48 h
[1] = system: KM12
[2] = system: DU-145
[3] = system: EKVX
[4] = system: UO-31
[5] = system: RPMI-8226
[6] = system: UACC-257
[7] = system: SK-OV-3
[8] = system: OVCAR-4
[9] = system: HOP-92
[10] = system: HOP-62
[11] = system: HCT-116
[12] = system: MOLT-4
[13] = system: HL-60
[14] = system: MDA-MB-435
[15] = system: Hs-578T
[16] = system: Malme-3M
[17] = system: MDA-MB-231
[18] = system: A498
[19] = system: NCI-H460

Structure (SMILES)	GI50 [1]	GI50 [2]	GI50 [3]	GI50 [4]	GI50 [5]	GI50 [6]	GI50 [7]	GI50 [8]	GI50 [9]	GI50 [10]	GI50 [11]	GI50 [12]	GI50 [13]	GI50 [14]	GI50 [15]	GI50 [16]	GI50 [17]	GI50 [18]	GI50 [19]
CCOC(=O)N1c2c(c3ccccc3n2C(=O)OCC)C(=O)C(OC)N1C(=O)OCC (stereo not drawn)	17.9 µM (inactive)	61.9 µM (inactive)	22 µM (inactive)	33.7 µM (inactive)	23.9 µM (inactive)	29.4 µM (inactive)	28.4 µM (inactive)	41.9 µM (inactive)	31.3 µM (inactive)	22 µM (inactive)	26.5 µM (inactive)	21.6 µM (inactive)	17.2 µM (inactive)	32.1 µM (inactive)	22.5 µM (inactive)	31.9 µM (inactive)	22.9 µM (inactive)	25.4 µM (inactive)	36.1 µM (inactive)
NNc1nncn1N	> 100 µM (inactive)	> 55.2 µM (inactive)	> 100 µM (inactive)	84.1 µM (inactive)	72.1 µM (inactive)	> 100 µM (inactive)	> 100 µM (inactive)	38.1 µM (inactive)	> 100 µM (inactive)	> 100 µM (inactive)	> 100 µM (inactive)	> 62.4 µM (inactive)	5.71 µM (inactive)	19.2 µM (inactive)	> 100 µM (inactive)	> 55 µM (inactive)	> 100 µM (inactive)	> 100 µM (inactive)	> 100 µM (inactive)
O=c1ccn(CC2(CO)CCCC2)c(=O)[nH]1	> 100 µM (inactive)	> 100 µM (inactive)	> 100 µM (inactive)	> 100 µM (inactive)	> 100 µM (inactive)	> 100 µM (inactive)	> 100 µM (inactive)	> 100 µM (inactive)	> 100 µM (inactive)	> 100 µM (inactive)	> 100 µM (inactive)	> 100 µM (inactive)	> 100 µM (inactive)	> 100 µM (inactive)	> 100 µM (inactive)	> 100 µM (inactive)	> 100 µM (inactive)	7.64 µM (inactive)	> 100 µM (inactive)
NNC(=O)CC(=O)Nc1cccc(Cl)c1	> 100 µM (inactive)	> 100 µM (inactive)	> 100 µM (inactive)	> 100 µM (inactive)	> 100 µM (inactive)	25.3 µM (inactive)	> 100 µM (inactive)	> 100 µM (inactive)	47.3 µM (inactive)	> 100 µM (inactive)	> 100 µM (inactive)	> 100 µM (inactive)	> 100 µM (inactive)	> 100 µM (inactive)	> 100 µM (inactive)	> 100 µM (inactive)	> 100 µM (inactive)	> 100 µM (inactive)	> 100 µM (inactive)
CC1(C)CC[C@]2(C(=O)O)CC[C@]3(C)C(=CC[C@@H]4[C@@]5(C)CC[C@H](OC6OC(CO)C(O)C(O)C6OC6OC(CO)C(O)C(O)C6O)C(C)(C)[C@@H]5CC[C@]43C)[C@@H]2C1 (stereo partly drawn)	15.5 µM (inactive)	17.2 µM (inactive)	18.5 µM (inactive)	20.6 µM (inactive)	23.2 µM (inactive)	20.1 µM (inactive)	17.8 µM (inactive)	16.8 µM (inactive)	17.6 µM (inactive)	17.8 µM (inactive)	17.1 µM (inactive)	22.5 µM (inactive)	21.9 µM (inactive)	20 µM (inactive)	24.2 µM (inactive)	15.5 µM (inactive)	26.4 µM (inactive)	18.5 µM (inactive)	21 µM (inactive)
Cc1c2cccc(Sc3ccccc3)c2c2c3c(cccc13)[S+](c1ccccc1)C2 (stereo not drawn)	1.16 µM (inactive)	3.78 µM (inactive)	2.71 µM (inactive)	2.95 µM (inactive)	0.221 µM (active)	0.594 µM (active)	1.84 µM (inactive)	1.98 µM (inactive)	2.03 µM (inactive)	1.89 µM (inactive)	2.06 µM (inactive)	1.65 µM (inactive)	0.935 µM (active)	1.75 µM (inactive)	2.74 µM (inactive)	1.8 µM (inactive)	2.16 µM (inactive)	2.65 µM (inactive)	1.58 µM (inactive)
O=C1C2C3C4C1C1C2[C@H](OCc2ccccc2)C3C1[C@H]4OCc1ccccc1 (stereo partly drawn)	52.2 µM (inactive)	> 100 µM (inactive)	27.6 µM (inactive)	55.8 µM (inactive)	36.6 µM (inactive)	33 µM (inactive)	> 100 µM (inactive)	70.3 µM (inactive)	17 µM (inactive)	73.3 µM (inactive)	50.5 µM (inactive)	50.1 µM (inactive)	22.5 µM (inactive)	61.4 µM (inactive)	20.5 µM (inactive)	76 µM (inactive)	82 µM (inactive)	> 100 µM (inactive)	49.8 µM (inactive)
